Data on 10 compounds can be found in ChEMBL document CHEMBL1201862, “PubChem BioAssay data set” (2004).

Test in all cases: NCI tumour cell line growth inhibition, 48 h
Assay [1] deals with HOP-92.
For assay [2], the system named is U-251.
Assay [3] has as its system ACHN.
In assay [4] the test system is CAKI-1.
In assay [5] the test system is SW-620.
Assay [6] concerns M19-MEL.
The subject of assay [7] is OVCAR-5.
For assay [8], the system named is SF-295.
Assay [9] relates to HL-60.
Assay [10] deals with LOX IMVI.
For assay [11], the system named is SK-MEL-2.
Assay [12] deals with NCI-H226.
The subject of assay [13] is SR.
The test system of assay [14] is KM12.
Assay [15] relates to COLO 205.
The subject of assay [16] is Malme-3M.
The test system of assay [17] is MDA-MB-435.
In assay [18] the test system is DU-145.
The subject of assay [19] is MDA-MB-231.
The subject of assay [20] is T47D.

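Each compound was tested at five concentrations against cells in 96-well plates for 48 hours. GI50 = concentration required for 50% inhibition of growth.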 Active and inactive are the calls of the source. Rule as the data show it: active = GI50 up to about 1.1 µM and inactive = higher. Bounds are passed on as bounds.

Consider `O=C(/C=C/c1ccccc1)/C=C/c1ccccc1`, for which the GI50 is 34.8 µM (inactive) in assay [1]; 20.6 µM (inactive) in assay [2]; 18.9 µM (inactive) in assay [3]; 92.9 µM (inactive) in assay [4]; 17.4 µM (inactive) in assay [5]; 20.6 µM (inactive) in assay [6]. For the same compound, the GI50 in [7] was > 100 µM (inactive); in [8], 53.5 µM (inactive); in assay [9], 23.2 µM (inactive); in assay [10] it was 16.8 µM (inactive); in assay [11], > 100 µM (inactive); in [12], > 100 µM (inactive). Also, the GI50 was 26.2 µM (inactive) in [13], 18 µM (inactive) in [14], > 100 µM (inactive) in assay [15] and 21.8 µM (inactive) in [16].
On to `CNS(=O)(=O)NNS(=O)(=O)c1ccccc1`, for which the GI50 in assay [1], in [2], in assay [3], in [4], in [5] and in assay [6] was > 100 µM (inactive) in each case. Further, the GI50 in [7], in assay [8], in assay [9], in [10], in assay [11] and in [12] was > 100 µM (inactive) throughout. For the same compound, the GI50 in [13], in assay [14], in assay [15] and in assay [16] was > 100 µM (inactive) in each case.
`C/C=C1\CN2CCc3c([nH]c4ccccc34)C2C=C1CCO` (centres undefined): the GI50 in assay [1], in [2], in assay [3], in assay [4], in assay [5] and in assay [6] was > 340 µM (inactive) each time. Besides, the GI50 in assay [7], in assay [8], in assay [9], in assay [10], in assay [11] and in [12] was > 340 µM (inactive) in each case. Further, the GI50 in [13], in [14], in assay [15] and in [16] was > 340 µM (inactive) throughout.
With `C=C(CCCCC)CN1CCCC1[C@@](C)(O)CC(=O)OCC` (some centres undefined), the GI50 in [1], in [2], in assay [3], in [4], in assay [5] and in assay [6] was > 100 µM (inactive) throughout. Besides, the GI50 is > 100 µM (inactive) in assay [7]; > 100 µM (inactive) in assay [8]; 28.6 µM (inactive) in [9]; > 100 µM (inactive) in [10]; > 100 µM (inactive) in assay [11]; > 100 µM (inactive) in assay [12]. Further, the GI50 is 71.8 µM (inactive) in [13], > 100 µM (inactive) in [14], > 100 µM (inactive) in assay [15] and > 100 µM (inactive) in assay [16].
Consider `COc1ccc(C2=CN3CCC[C@H]3C=C2c2cc(O)c(OC)c(OC)c2)cc1OC`, for which the GI50 in [1] was 0.0038 µM (active); in assay [17], 0.00284 µM (active); in assay [2] it was 0.00416 µM (active); in [18], 0.00398 µM (active); in assay [3], 0.00302 µM (active); in [4] it was 0.00382 µM (active). The GI50 in assay [5] is 0.00337 µM (active); in assay [6], 0.00274 µM (active); in assay [7], 0.00561 µM (active); in [8] it was 0.00446 µM (active); in assay [9], 0.00351 µM (active); in assay [10], 0.00163 µM (active). Further, the GI50 was 0.00631 µM (active) in assay [19]; 0.00314 µM (active) in assay [11]; 0.00376 µM (active) in assay [12]; 0.00394 µM (active) in assay [13]; 0.00337 µM (active) in [14]; 0.0115 µM (active) in assay [15]. Also, the GI50 in [20] was 0.00371 µM (active); in [16] it was 0.00421 µM (active).
As for `C=C1C(C)C2C(Cc3ccccc3)NC(=O)C23OC(=O)/C=C\CC(=O)CCC(C)C/C=C/C3C1O` (centres undefined), the GI50 in assay [1] is 0.581 µM (active); in assay [2] it was 2.54 µM (inactive); in assay [4], 0.421 µM (active); in [5] it was 1.36 µM (inactive); in assay [6], 4.3 µM (inactive); in [7], 8.69 µM (inactive). Also, the GI50 in assay [8] was 2.54 µM (inactive); in assay [10] it was 0.875 µM (active); in assay [11] it was 1.58 µM (inactive); in assay [12], 1.92 µM (inactive); in assay [14] it was 2.88 µM (inactive); in [15], 1.34 µM (inactive). Moreover, the GI50 in [20] was 0.635 µM (active); in assay [16], 1.82 µM (inactive).
With `COC(=O)/C(=N\NC(C)(C)C)C(C(=O)OC)C(=O)C(=O)Nc1cc(Cl)ccc1Cl` (centres undefined), the GI50 in assay [1], in [2], in assay [3], in assay [4], in assay [5] and in assay [6] was > 100 µM (inactive) in each case. Further, the GI50 in [7], in assay [8], in [9], in [10], in [11] and in assay [12] was > 100 µM (inactive) in each case. For the same compound, the GI50 in assay [13], in assay [14], in [15] and in assay [16] was > 100 µM (inactive) each time.
With `CCCCNC(=O)CCN(C(=O)O)S(=O)(=O)c1ccc(NC(=O)c2ccccc2)cc1`, the GI50 in assay [1] is > 100 µM (inactive); in assay [2] it was 77.6 µM (inactive); in assay [3], > 100 µM (inactive); in assay [4] it was > 100 µM (inactive); in [5] it was 14 µM (inactive); in assay [6] it was 79.4 µM (inactive). Further, the GI50 in assay [7] is > 100 µM (inactive); in assay [8], > 100 µM (inactive); in assay [9], > 100 µM (inactive); in [10], 18.8 µM (inactive); in [11], > 100 µM (inactive); in assay [12], > 100 µM (inactive). Besides, the GI50 in assay [13] is > 100 µM (inactive); in assay [14] it was > 100 µM (inactive); in [15], 64.3 µM (inactive); in [16], > 100 µM (inactive).
As to `Nc1ccc(C(=O)Nc2ccccc2N)cc1` [DINALINE], the GI50 was 37.9 µM (inactive) in [1]; 20.4 µM (inactive) in assay [17]; 17.7 µM (inactive) in [2]; 41.7 µM (inactive) in [18]; 31.7 µM (inactive) in assay [3]; 42.8 µM (inactive) in assay [4]. Moreover, the GI50 in assay [5] was 19.2 µM (inactive); in assay [6], 25.7 µM (inactive); in assay [7], 8.15 µM (inactive); in assay [8], 26.1 µM (inactive); in assay [9] it was 3.37 µM (inactive); in assay [10] it was 21 µM (inactive). The GI50 in assay [19] is 30.3 µM (inactive); in assay [11], 23.3 µM (inactive); in [12], > 78.5 µM (inactive); in assay [13], 16.3 µM (inactive); in assay [14] it was 44.5 µM (inactive); in assay [15], 17.6 µM (inactive). In assay [16], the GI50 is 5.92 µM (inactive).
Regarding `CO[C@H]1[C@H](O)[C@H](O[C@H]2CC[C@@]3(C)[C@H](CC[C@@H]4[C@@H]3CC[C@]3(C)[C@@H](C5=CC(=O)OC5)CC[C@]43O)C2)O[C@@H](C)[C@@H]1O` [NERIIFOLIN], the GI50 was 0.00123 µM (active) in assay [1]; < 0.0001 µM (active) in [17]; 0.00132 µM (active) in [2]; < 0.0001 µM (active) in assay [18]; 0.000224 µM (active) in assay [3]; 0.000572 µM (active) in assay [4]. In addition, the GI50 in assay [5] is 0.000925 µM (active); in assay [6] it was 0.00363 µM (active); in assay [7], 0.00154 µM (active); in assay [8], 0.00056 µM (active); in assay [9], 0.000419 µM (active); in [10] it was 0.000755 µM (active). In addition, the GI50 in assay [19] is 0.00165 µM (active); in assay [11], 0.00117 µM (active); in assay [12], 0.00596 µM (active); in assay [13], < 0.01 µM (active); in [14] it was 0.00152 µM (active); in assay [15], 0.0018 µM (active). Also, the GI50 was 0.000628 µM (active) in assay [20] and 0.000428 µM (active) in assay [16].
